Data published in article PMC11821258 (Molecules, 2025).
Read-outs that look alike come from different tables or passages of the source.

Experiments:
Assay type in all cases: cell-based
[1] = test system: human pancreas cancer MiaPaca-2 cells; test: Antiproliferative activity, SRB assay, 72 h; details: for SI: IC50 MCF-10A / IC50 MiaPaca-1 (so in the source)
Description: (§1) The tested compounds were dissolved in DMSO (dimethyl sulfoxide) to a concentration of 10 mg/mL and then were diluted in the culture medium to reach the final concentrations. The cells were plated in 384-well plates at a density of 1 × 10^3 or 2 × 10^3 (MCF-10A) cells per well (Greiner Bio One, Kremsmünster, Austria) and in 96-well plates (MV4-11 cell; Sarstedt, Nümbrecht, Germany) at a density of 5 × 10^3 cells per well. After 24 h of incubation, the tested compounds were added at concentrations in the range of 100–0.03 µg/mL and, after the next 72 h of exposure to tested agents, the cytotoxic effect of all agents was examined using the MTT (MV4-11) or SRB assay, described previously. The values of IC50 (inhibitory concentration 50%) were calculated separately for each experiment (repeated 3–5 times) using the Prolab-3 system which is based on Cheburator 0.4 software. Doxorubicin was applied as a reference drug. The IC50 values in µg/mL were calculated to µM.
(§2) The cytotoxicity assay was performed after the cultured cells were exposed to the tested agents for 72 h using the authomatic Washer dyspenser EL406, BioTek. At the first step, the washer dispenser collected 40 µL of cultured medium from each wells, and then the cells were fixed by gently layering 20 µL per well of cold 25% trichloroacetic acid to each well. The incubation time was 40 min and then the plates were washed with tap water. The cells were stained with 20 µL per well of 0.1% sulforhodamine B (SRB, Merck, Darmstadt, Germany) for 30 min. Unbound sulforhodamine B was removed by washing it with 1% acetic acid. The protein-bound dye was extracted in 30 min using 70 µL per well of 10 mM unbuffered Tris base (Merck, Darmstadt, Germany). The absorbance (at 540 nm) was measured on a Synergy H4 photometer (BioTek Instruments, Winooski, VT, USA). The absorbance of the wells without the cells was the background.

[2] = test system: human prostate adenocarcinoma PC-3; test: Antiproliferative activity, SRB assay, 72 h; details: for IC50: Homo sapiens; for SI: IC50 MCF-10A / IC50 PC-3
Description: as §1, §2

[3] = test system: human breast cancer MCF-7; test: Antiproliferative activity, SRB assay, 72 h; details: for IC50: Homo sapiens; for SI: IC50 MCF-10A / IC50 MCF-7
Description: as §1, §2

[4] = test system: human colon cancer HCT116 cells; test: Antiproliferative activity, SRB assay, 72 h; details: for SI: IC50 MCF-10A / IC50 HCT116
Description: as §1, §2

[5] = test system: human lung carcinoma A549; test: Antiproliferative activity, SRB assay, 72 h; details: for IC50: A549, 72 h; for SI: IC50 MCF-10A / IC50 A549
Description: as §1, §2

[6] = test system: human melanoma Hs294T cells; test: Antiproliferative activity, SRB assay, 72 h; details: for IC50: 72 h; for SI: IC50 MCF-10A / IC50 Hs249T (so in the source)
Description: as §1, §2

[7] = test system: human normal epithelial cells from the mammary gland (MCF-10A); test: Cytotoxicity on non-tumorigenic cells, SRB assay, 72 h
Description: as §1, §2

[8] = test system: human biphenotypic B myelomonocytic leukemia MV4-11; test: Antiproliferative activity, MTT assay, 72 h; details: for IC50: Homo sapiens, MV4-11, 72 h; for SI: IC50 MCF-10A / IC50 MV4-11
Description: as §1
This assay was used against MV4-11 leukemia cells and was performed after 72 h of exposure of the tested agents to the cells. For each well, 20 µL of the MTT [3-(4,5-dimethylthiazol-2-yl)-2,5-diphenyl tetrazolium bromide] solution (5 mg/mL, Merck, Darmstadt, Germany) was added. After the incubation time (4 h at 37 °C), 80 µL of the lysing buffer was added to each well (mixture of 225 mL of DMF (dimethylformamide) Avantor, Poland; 67.5 g of SDS, Merck, Darmstadt, Germany; and 275 mL of distilled water). After the next 24 h, the absorbance of the samples was measured at a 570 nm wavelength on a Synergy H4 photometer (BioTek Instruments, Winooski, VT, USA). The absorbance of wells without the cells was the background.

[9] = Homo sapiens, MIA PaCa-2, MiaPaca-1 (so in the source), 72 h, SRB, read-out: IC50
[10] = PC-3, 72 h, SRB, read-out: IC50
[11] = MCF7, MCF-7, 72 h, SRB, read-out: IC50
[12] = Homo sapiens, HCT-116, HCT116, 72 h, SRB, read-out: IC50
[13] = Homo sapiens, SRB, read-out: IC50
[14] = Homo sapiens, Hs 294T, Hs249T (so in the source), SRB, read-out: IC50
[15] = Homo sapiens, MCF-10A normal cells, SRB, read-out: IC50

Row | SMILES | IC50 [1, 9] [µM] | SI [1] | IC50 [2, 10] [µM] | SI [2] | IC50 [3, 11] [µM] | SI [3] | IC50 [4, 12] [µM] | SI [4] | IC50 [5, 13] [µM] | SI [5] | IC50 [6, 14] [µM] | SI [6] | IC50 [7, 15] [µM] | IC50 ([8]; MTT, read-out: IC50) [µM] | SI [8] | IC50 ([2]; 72 h) [µM] | IC50 ([3]; MCF7, 72 h) [µM] | IC50 [8] [µM] | also measured
1 | C=C(C)[C@@H]1CC[C@]2(COC(C)=O)CC[C@]3(C)[C@H](CC[C@@H]4[C@@]5(C)CC[C@H](O)C(C)(C)[C@@H]5CC[C@]43C)[C@@H]12 [A, 28-O-acetylbetulin, reference compound] | 127 ± 16.3 | 0.98 | 80.7 ± 13.4 | 1.54 | 72.4 ± 6.6 | 1.71 | 40.6 ± 13.6 | 3.05 | 27.8 ± 10.5 | 4.45 | 128 ± 14.2 | 0.97 | 124 ± 33 | 41.1 ± 8.46 | 3.02 | – | – | – | –
2 | C=C(C)[C@@H]1CC[C@]2(COC(C)=O)CC[C@]3(C)C(CCC4[C@@]5(C)CC[C@H](OC(=O)CC(C)(C)CC(=O)O)C(C)(C)C5CC[C@]43C)C12 (stereo partly shown) [Compound 1] | 23.6 ± 3.83 | 1.41 | 14 ± 7.02 | 2.36 | 7.02 ± 2.39 | 4.73 | 6.38 ± 2.87 | 5.20 | 4.94 ± 0.48 | 6.71 | 11.6 ± 1.12 | 2.85 | 33.2 ± 1.91 | 2.9 ± 0.26 | 11.44 | – | – | – | –
3 | C=C(C)[C@@H]1CC[C@]2(COC(C)=O)CC[C@]3(C)C(CCC4[C@@]5(C)CC[C@H](OC(=O)CC(C)(C)C(=O)O)C(C)(C)C5CC[C@]43C)C12 (stereo partly shown) [Compound 2, 28-acetyl-3-(3′,3′-dimethylsuccinyl)betulin] | – | 1.20 | – | 1.69 | – | 2.04 | – | 3.10 | – | 7.43 | – | 1.23 | – | – | 7.70 | 20.1 ± 2.12 | 16.6 ± 7.67 | 4.4 ± 1.63 | IC50 ([1]; Homo sapiens, MIA PaCa-2, 72 h): 28.2 ± 4.4 µM; IC50 ([4]; Homo sapiens, HCT-116, 72 h): 10.9 ± 2.94 µM; IC50 ([5]; Homo sapiens): 4.57 ± 1.79 µM; IC50 ([6]; Homo sapiens, Hs 294T): 27.6 ± 0.65 µM; IC50 ([7]; Homo sapiens, MCF-10A): 33.9 ± 4.24 µM
4 | C=C(C)[C@@H]1CC[C@]2(COC(C)=O)CC[C@]3(C)C(CCC4[C@@]5(C)CC[C@H](OC(=O)CCC(=O)O)C(C)(C)C5CC[C@]43C)C12 (stereo partly shown) [Compound 3] | – | 0.97 | – | 1.50 | – | 1.94 | – | 2.55 | – | 6.53 | – | 1.53 | – | – | 8.82 | 22.4 ± 2.56 | 17.3 ± 6.33 | 3.93 ± 1.54 | IC50 ([1]; Homo sapiens, MIA PaCa-2, 72 h): 34.5 ± 5.47 µM; IC50 ([4]; Homo sapiens, HCT-116, 72 h): 13.2 ± 1.02 µM; IC50 ([5]; Homo sapiens): 5.13 ± 0.85 µM; IC50 ([6]; Homo sapiens, Hs 294T): 21.9 ± 4.27 µM; IC50 ([7]; Homo sapiens, MCF-10A): 33.5 ± 1.88 µM
5 | C=C(C)[C@@H]1CC[C@]2(COC(=O)C#CC)CC[C@]3(C)C(CCC4[C@@]5(C)CC[C@H](OC(=O)CC(C)(C)CC(=O)O)C(C)(C)C5CC[C@]43C)C12 (stereo partly shown) [Compound 4c] | 22.7 ± 5.53 | 1.43 | 10.1 ± 2.46 | 3.21 | 16.6 ± 2.15 | 1.96 | 8.45 ± 2.15 | 3.85 | 7.37 ± 2.3 | 4.42 | 9.68 ± 1.54 | 3.37 | 32.6 ± 2.15 | 3.23 ± 1.38 | 10.10 | – | – | – | –
6 | C=C(C)[C@@H]1CC[C@]2(COC(=O)CC)CC[C@]3(C)C(CCC4[C@@]5(C)CC[C@H](OC(=O)CC(C)(C)CC(=O)O)C(C)(C)C5CC[C@]43C)C12 (stereo partly shown) [Compound 4d] | 34.2 ± 2.96 | 1.77 | 21.7 ± 4.52 | 2.78 | 20.6 ± 5.77 | 2.93 | 16.9 ± 5.61 | 3.58 | 6.24 ± 1.25 | 9.68 | 18.7 ± 9.67 | 3.23 | 60.4 ± 15.9 | 5.15 ± 0.47 | 11.73 | – | – | – | –
7 | C=C(C)[C@@H]1CC[C@]2(COC(=O)C#CC3CC3)CC[C@]3(C)C(CCC4[C@@]5(C)CC[C@H](OC(=O)CC(C)(C)CC(=O)O)C(C)(C)C5CC[C@]43C)C12 (stereo partly shown) [Compound 4e] | 67.1 ± 14.5 | 1.01 | 15.2 ± 5.91 | 4.47 | 25.7 ± 4.43 | 2.60 | 23.2 ± 5.91 | 2.93 | 59.8 ± 22.2 | 1.14 | 19.8 ± 5.61 | 3.40 | 68 ± 34.9 | 3.16 ± 0.88 | 21.50 | – | – | – | –
8 | C=C(C)[C@@H]1CC[C@]2(COC(=O)C#Cc3ccccc3)CC[C@]3(C)C(CCC4[C@@]5(C)CC[C@H](OC(=O)CC(C)(C)CC(=O)O)C(C)(C)C5CC[C@]43C)C12 (stereo partly shown) [Compound 4f] | – | – | – | – | – | – | – | – | – | – | – | – | – | – | – | 95.8 ± 27.1 | 131 ± 8.83 | 46.6 ± 11.8 | IC50 ([1]; MiaPaca-1 (so in the source), 72 h, SRB): Neg; IC50 ([4]; HCT116, 72 h, SRB): does not show activity and Neg; IC50 ([5]; SRB): does not show activity and Neg; IC50 ([6]; Hs249T (so in the source), SRB): Neg; IC50 ([7]; MCF-10A normal cells, SRB): Neg
9 | C#CC(=O)OC[C@]12CC[C@@H](C(=C)C)C1C1CCC3[C@@]4(C)CC[C@H](OC(=O)CC(C)(C)C(=O)O)C(C)(C)C4CC[C@@]3(C)[C@]1(C)CC2 (stereo partly shown) [Compound 5a] | – | – | 0.85 ± 0.17 | 14.94 | 19.4 ± 3.1 | 0.65 | 3.64 ± 0.6 | 3.49 | 10.7 ± 3 | 1.18 | – | – | 12.7 ± 0.5 | 0.6 ± 0.175 | 21.17 | – | – | – | –
